Laboratory results: patent US20150045366A1, “SPRAY DRIED FORMULATIONS” (Gilead Sciences, Inc., priority 2012, published 2015)

Assay: Hygroscopicity: weight gain and moisture induced phase transition in humidity-controlled desiccator
Type: physicochemical
Method: Hygroscopicity of the compositions of invention were measured by placing approximately 20 to 50 mg of the sample in an uncapped scintillation vial. The vial was stored at ambient temperature in a Pyrex brand desiccator (VWR, International, West Chester, Pa.). The humidity within the desiccator was controlled at 55% relative humidity and 75% relative humidity using saturated aqueous solutions of […] and sodium chloride, respectively. The relative humidity was confirmed using a digital hygrometer pen (VWR International, West Chester, Pa.). The weight gain for all the samples was determined after 24 hours; it was not determined whether equilibrium was reached after that period. Visual observation of moisture induced phase transition was also noted.

- Weight gain at 55% RH (55% relative humidity, ambient temperature, after 24 hours): 1.9%
- Weight gain at 75% RH (75% relative humidity, ambient temperature, after 24 hours): 3.7%
- Phase transition (at 55% RH) (visual observation of moisture induced phase transition, 55% RH, 24 hours): yes
- Phase transition (at 75% RH) (visual observation of moisture induced phase transition, 75% RH, 24 hours): yes
SMILES: CC(C)c1nc(CN(C)C(=O)N[C@@H](CCN2CCOCC2)C(=O)N[C@H](CC[C@H](Cc2ccccc2)NC(=O)OCc2cncs2)Cc2ccccc2)cs1 [Compound Free base, thiazol-5-ylmethyl (2R,5R)-5-((S)-2-(3-((2-isopropylthiazol-4-yl)methyl)-3-methylureido)-4-morpholinobutanamido)-1,6-diphenylhexan-2-ylcarbamate]
